Reference: patent US20140107107A1, “PHARMACEUTICAL FORMULATION CONTAINING THIENOTRIAZOLODIAZEPINE COMPOUNDS” (Oncoethix SA, priority 2012, published 2014)

What was measured:
[1] = pharmacokinetics and oral bioavailability in dogs; type: in vivo; conditions: male, beagle, dog, plasma, 1 mg/kg IV
Procedure: Blood samples were collected from the jugular vein of each animal at 0 (pre-dose), 5, 15, and 30 minutes and 1, 2, 4, 8, 12, and 24 hours following intravenous administration and at 0 (pre-dose), 15 and 30 minutes and 1, 2, 4, 8, 12, and 24 hours following oral gavage administration. The amount of compound (1-1) present in each sample was detected using a qualified LC-MS/MS method with a lower limit of quantification of 0.5 ng/mL. The area under the plasma concentration-time curve (AUC) was determined by use of the linear trapezoidal rule up to the last measurable concentration without extrapolation of the terminal elimination phase to infinity. The elimination half-life (t1/2) was calculated by least-squares regression analysis of the terminal linear part of the log concentration-ime curve. The maximum plasma concentration (Cmax) and the time to Cmax (tmax) were derived directly from the plasma concentration data. The oral bioavailability (F) was calculated by dividing the dose normalized AUC after oral administration by the dose normalized AUC after intravenous administration and reported as percentages (%).

[2] = oral exposure in the rat (pharmacokinetics); type: in vivo, Hsd:Sprague Dawley rats; conditions: 1 mg/kg intravenous
Procedure: The oral bioavailability of three formulations of solid dispersions of compound (1-1) was determined in rats. The three dispersions chosen were the 25% dispersion of compound (1-1) in PVP, the 25% dispersion of compound (1-1) in HPMCAS-MG, and the 50% dispersion of compound (1-1) in HPMCAS-MG. The animals used in the study were Specific Pathogen Free (SPF) Hsd:Sprague Dawley rats obtained from the Central Animal Laboratory at the University of Turku, Finland. The rats were originally purchased from Harlan, The Netherlands. The rats were female and were ten weeks of age, and 12 rats were used in the study. The animals were housed in polycarbonate Makrolon II cages (three animals per cage), the animal room temperature was 21+/−3° C., the animal room relative humidity was 55+/−15%, and the animal room lighting was artificial and was cycled for 12 hour light and dark periods (with the dark period between 18:00 and 06:00 hours). Aspen chips (Tapvei Oy, Estonia) were used for bedding, and bedding was changed at least once per week. Food and water was provided prior to dosing the animals but was removed during the first two hours after dosing.
The oral dosing solutions containing the 25% dispersion of compound (1-1) in PVP, the 25% dispersion of compound (1-1) in HPMCAS-MG, and the 50% dispersion of compound (1-1) in HPMCAS-MG were prepared by adding a pre-calculated amount of sterile water for injection to containers holding the dispersion using appropriate quantities to obtain a concentration of 0.75 mg/mL of compound (1-1). The oral dosing solutions were subjected to vortex mixing for 20 seconds prior to each dose. The dosing solution for intravenous administration contained 0.25 mg/mL of compound (1-1) and was prepared by dissolving 5 mg of compound (1-1) in a mixture containing 4 mL of polyethylene glycol with an average molecular weight of 400 Da (PEG400), 4 mL of ethanol (96% purity), and 12 mL of sterile water for injection. The dosing solution containing the 25% dispersion of compound (1-1) in PVP was used within 30 minutes after the addition of water. The dosing solutions containing the 25% dispersion of compound (1-1) in HPMCAS-MG and the 50% dispersion of compound (1-1) in HPMCAS-MG were used within 60 minutes of after the addition of water. A dosing volume of 4 mL/kg was used to give dose levels of compound (1-1) of 1 mg/kg for intravenous administration and 3 mg/kg for oral administration.
Blood samples of approximately 50 μL were collected into Eppendorf tubes containing 5 μL of ethylenediaminetetraacetic acid (EDTA) solution at time points of 0.25, 0.5, 1, 2, 4, 8, 12, and 24 hours after dosing, with each sample collected within a window of 5 minutes from the prescribed time point. From each sample, 20 μL of plasma was obtained and stored at dry ice temperatures for analysis. Analysis of each sample for the concentration of compound (1-1) was performed using a validated liquid chromatography tandem mass spectrometry (LC-MS/MS) method with a lower limit of quantitation of 0.5 ng/mL.
Pharmacokinetic parameters were calculated with the Phoenix WinNonlin software package (version 6.2.1, Pharsight Corp., CA, USA) with standard noncompartmental methods. The elimination phase half-life (t1/2) was calculated by least-squares regression analysis of the terminal linear part of the log concentration-time curve. The area under the plasma concentration-time curve (AUC) was determined by use of the linear trapezoidal rule up to the last measurable concentration and thereafter by extrapolation of the terminal elimination phase to infinity. The mean residence time (MRT), representing the average amount of time a compound remains in a compartment or system, was calculated by extrapolating the drug concentration profile to infinity. The maximum plasma concentration (Cmax) and the time to Cmax (tmax) were derived directly from the plasma concentration data. […]

[3] = female, Hsd:Sprague Dawley, plasma

SMILES: Cc1sc2c(c1C)C(c1ccc(Cl)cc1)=N[C@@H](CC(=O)Nc1ccc(O)cc1)c1nnc(C)n1-2 [Compound (1-1), 2-[(6S)-4-(4-chlorophenyl)-2,3,9-trimethyl-6H-thienol[3,2f]-[1,2,4]triazolo[4,3-a][1,4]diazepin-6-yl]-N-(4-hydroxyphenyl)acetamide dihydrate]
- half-life [1]: 1.5 h
- Cmax ([1]; average of three dogs): 769 ng/mL
- Tmax ([1]; average of three dogs): 4.98 min
- AUC ([1]; to last measurable concentration): 889 ng·h/mL
- CI/F [2]: 13.4 mL/min/kg
- Cmax [2, 3]: 730 ng/mL
- MRT [2, 3]: 7.4 h
- Tmax [2, 3]: 0.25 h
- half-life [2, 3]: 8.5 h
- AUC ([2]; female, Hsd:Sprague Dawley, plasma, extrapolated to infinity): 1240 ng·h/mL
